This passage reports TGI and GI50 results from PubChem BioAssay (NCI).

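In this assay, cells in 96-well plates receive the compound at five concentrations for 48 hours. Endpoints are linearly interpolated between the surrounding concentrations. GI50: concentration for 50% inhibition of growth. TGI: total growth inhibition.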

Common to all, as to experiment: NCI anticancer screen, dose series, 48 h
Assay [1] relates to HOP-92 NSCLC.
The subject of assay [2] is UACC-257 melanoma.
Assay [3] has as its system 786-0 renal.
Assay [4] relates to KM12 colon.
Assay [5] relates to ACHN renal.
Assay [6] deals with NCI/ADR-RES ovarian.
Assay [7] relates to MDA-N.
The subject of assay [8] is HS 578T breast.
Assay [9] relates to MOLT-4 leukemia.
Assay [10] has as its system M14 melanoma.
Assay [11] deals with HL-60(TB) leukemia.

Turning to `Oc1c(C2=NNC(c3ccc(Cl)cc3Cl)C2)ccc2ccccc12` (stereo not drawn), the TGI in assay [1] was greater than 100 µM; in assay [2], greater than 100 µM; in assay [3], greater than 100 µM; in assay [4], greater than 100 µM; in assay [5], greater than 100 µM; in [6], 83.3 µM. The TGI is 55.5 µM in [7], greater than 100 µM in [8], 31.4 µM in assay [9] and greater than 100 µM in [10].
Take `CC(C)(Br)C(Br)CCC1(C2CO2)CO1` (stereo not drawn): the TGI in [1], in assay [2], in assay [3], in [5], in assay [6] and in assay [7] was greater than 5 µM in each case. The TGI in [8], in assay [9] and in assay [10] was greater than 5 µM in each case.
With `CN(C)CCCNC(=O)c1cc2[nH]c3c(cnc4ccc([N+](=O)[O-])cc43)c(=O)c2n1C`, the GI50 is 13.5 µM in assay [1]; 21.2 µM in [2]; 12 µM in assay [4]; 12.2 µM in assay [11]; 14.5 µM in assay [5]; 22 µM in [6]. For the same compound, the GI50 is 18.1 µM in [8], 13.5 µM in [9] and 17.3 µM in [10]. The TGI in assay [1] amounted to 32.1 µM; in assay [2], 39.7 µM; in [4], 25.2 µM; in [11], 34.4 µM; in assay [5], 27.9 µM; in [6], 49.6 µM. For the same compound, the TGI in assay [8] amounted to 41.3 µM; in assay [9], 33.9 µM; in assay [10], 31.1 µM.
For the compound `COc1ccc(N2C(=O)/C(=C(\C)c3cc4ccccc4oc3=O)N=C2c2cc([N+](=O)[O-])ccc2Cl)cc1`, the TGI in assay [2] is greater than 100 µM; in assay [4], 87.4 µM; in [11] it was 70.8 µM; in assay [5] it was greater than 100 µM; in [9] it was greater than 100 µM; in [10], 86.3 µM.
`NS(=O)(=O)c1ccc(N=Nc2nc3[nH]c(=O)[nH]c(=O)c3[nH]2)cc1`: the TGI in assay [1], in assay [2], in assay [3], in [4], in assay [5] and in assay [6] was greater than 100 µM throughout. In addition, the TGI in assay [7], in assay [8] and in assay [10] was greater than 100 µM throughout.
In the case of `CCOC(=O)C1(C#N)C(c2ccccc2)CC(O)(c2ccc(OC)cc2)C(C(=O)c2ccc(OC)cc2)C1c1ccccc1` (stereo not drawn), the TGI in assay [2], in [3], in assay [4], in assay [11], in assay [5] and in assay [9] was greater than 100 µM throughout. Also, the TGI in [10] was greater than 100 µM.
Turning to `CC(C)(C)[Si](C)(C)OCC1OC(n2ccc(N)nc2=O)C(O[Si](C)(C)C(C)(C)C)C1O[Si](C)(C)C(C)(C)C` (stereo not drawn), the TGI was 4.71 µM in [1]; 10.4 µM in assay [2]; 3.01 µM in [3]; 3.21 µM in assay [5]; greater than 100 µM in assay [6]; 13 µM in assay [7]. For the same compound, the TGI in assay [8] turned out to be 7.89 µM; in assay [10] it was 3.24 µM.
Regarding `CCCCN(CCCC)CC(O)c1cc(-c2ccc(C(F)(F)F)cc2)nc(-c2ccc(C(F)(F)F)cc2)c1` (stereo not drawn), the TGI in assay [1], in assay [2], in assay [3], in assay [11], in [5] and in assay [6] was greater than 100 µM in each case. The TGI in assay [9] and in assay [10] was greater than 100 µM in each case.
As for `Cc1cc2c(cc1Cl)SC(NS(=O)(=O)c1ccc(Cl)cc1)=NS2(=O)=O`, the TGI in assay [1] was 39.5 µM; in assay [2], greater than 100 µM; in assay [3] it was greater than 100 µM; in assay [4], greater than 100 µM; in assay [11], greater than 100 µM; in [5] it was greater than 100 µM. Also, the TGI in [6] is greater than 100 µM; in assay [8], greater than 100 µM; in assay [9] it was 73 µM; in [10], greater than 100 µM.
As for `CC(C)(C)NC(NC(C)(C)C)=C(/C=C(/Cl)[N+](=O)[O-])[N+](=O)[O-]`, the TGI in [1] is greater than 100 µM; in assay [2], greater than 100 µM; in assay [3], greater than 100 µM; in assay [4], greater than 100 µM; in assay [11], 53.5 µM; in assay [5], greater than 100 µM. Moreover, the TGI in [7] is 59.5 µM; in [8], greater than 100 µM; in assay [9], greater than 100 µM; in assay [10] it was 92.5 µM.
In the case of `Oc1cn(-c2ccc(Cl)cc2)nc1-c1nnc(-c2ccccc2)o1`, the TGI in assay [1] came to 80.6 µM; in assay [2], 21.6 µM; in assay [3], 12.2 µM; in assay [4], 4.05 µM; in assay [11], 17.7 µM; in assay [5], 24.5 µM. The TGI in [6] amounted to 7 µM; in assay [8], 40.8 µM; in [9], 19.9 µM; in [10], 11.7 µM.
As for `O=c1[nH]c2c(nc1NC13CC4CC(CC(C4)C1)C3)c(=O)oc1ccccc12`, the TGI in [1], in assay [2], in assay [3], in assay [4], in [11] and in [5] was greater than 100 µM each time. The TGI in assay [9] and in assay [10] was greater than 100 µM each time.
Turning to `COC(=O)CCC1=CCC2(SC)C(=O)Nc3cccc1c32` (stereo not drawn), the TGI in [1], in assay [2], in assay [3], in assay [4], in assay [11] and in assay [5] was greater than 100 µM throughout. In addition, the TGI in [6], in assay [8], in assay [9] and in assay [10] was greater than 100 µM throughout.
